Measured values from PubChem BioAssay (NCI).
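Cultured in 96-well plates, cells were exposed to test compound for 48 hours across five concentrations. TGI: total growth inhibition.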

Columns and labels:
Assay in all cases: NCI-60 cell line screen, 48 h
786-0 renal = system: 786-0 renal
A498 renal = system: A498 renal
A549 NSCLC = system: A549 NSCLC
ACHN renal = system: ACHN renal
BT-549 breast = system: BT-549 breast
CAKI-1 renal = system: CAKI-1 renal
CCRF-CEM leukemia = system: CCRF-CEM leukemia
COLO 205 colon = system: COLO 205 colon
DU-145 prostate = system: DU-145 prostate
EKVX NSCLC = system: EKVX NSCLC
HCC-2998 colon = system: HCC-2998 colon
HCT-116 colon = system: HCT-116 colon
HCT-15 colon = system: HCT-15 colon
HL-60(TB) leukemia = system: HL-60(TB) leukemia
HOP-62 NSCLC = system: HOP-62 NSCLC
HOP-92 NSCLC = system: HOP-92 NSCLC
HS 578T breast = system: HS 578T breast
HT29 colon = system: HT29 colon
IGROV1 ovarian = system: IGROV1 ovarian
K-562 leukemia = system: K-562 leukemia
KM12 colon = system: KM12 colon
LOX IMVI melanoma = system: LOX IMVI melanoma
M14 melanoma = system: M14 melanoma
MALME-3M melanoma = system: MALME-3M melanoma
MCF7 breast = system: MCF7 breast
MDA-MB-231 breast = system: MDA-MB-231 breast
MDA-MB-435 = system: MDA-MB-435
MDA-N = system: MDA-N
MOLT-4 leukemia = system: MOLT-4 leukemia
NCI-H226 lung = system: NCI-H226 lung
NCI-H23 lung = system: NCI-H23 lung
NCI-H460 lung = system: NCI-H460 lung
NCI-H522 lung = system: NCI-H522 lung
NCI/ADR-RES ovarian = system: NCI/ADR-RES ovarian
OVCAR-3 ovarian = system: OVCAR-3 ovarian
OVCAR-4 ovarian = system: OVCAR-4 ovarian
OVCAR-5 ovarian = system: OVCAR-5 ovarian
OVCAR-8 ovarian = system: OVCAR-8 ovarian
PC-3 prostate = system: PC-3 prostate
RPMI-8226 leukemia = system: RPMI-8226 leukemia
SF-268 CNS = system: SF-268 CNS
SF-295 CNS = system: SF-295 CNS
SF-539 CNS = system: SF-539 CNS
SK-MEL-2 melanoma = system: SK-MEL-2 melanoma
SK-MEL-28 melanoma = system: SK-MEL-28 melanoma
SK-MEL-5 melanoma = system: SK-MEL-5 melanoma
SK-OV-3 ovarian = system: SK-OV-3 ovarian
SN12C renal = system: SN12C renal
SNB-19 CNS = system: SNB-19 CNS
SNB-75 CNS = system: SNB-75 CNS
SR leukemia = system: SR leukemia
SW-620 colon = system: SW-620 colon
T-47D breast = system: T-47D breast
TK-10 renal = system: TK-10 renal
U251 CNS = system: U251 CNS
UACC-257 melanoma = system: UACC-257 melanoma
UACC-62 melanoma = system: UACC-62 melanoma
UO-31 renal = system: UO-31 renal

CCOC(=O)CCC(NC(=O)c1ccc(Nc2nc3ccccc3nc2C(=O)OCC)cc1)C(=O)OCC (stereo not drawn)
TGI (786-0 renal): 3.46 µM | TGI (A498 renal): 18.6 µM | TGI (A549 NSCLC): 14.3 µM | TGI (ACHN renal): 11.5 µM | TGI (BT-549 breast): 25.7 µM | TGI (CAKI-1 renal): 14.4 µM | TGI (CCRF-CEM leukemia): > 100 µM | TGI (COLO 205 colon): > 100 µM | TGI (DU-145 prostate): > 35.8 µM | TGI (EKVX NSCLC): 40.1 µM | TGI (HCC-2998 colon): > 100 µM | TGI (HCT-116 colon): 8.6 µM | TGI (HCT-15 colon): > 100 µM | TGI (HL-60(TB) leukemia): > 100 µM | TGI (HOP-62 NSCLC): 12.4 µM | TGI (HOP-92 NSCLC): 13.9 µM | TGI (HS 578T breast): 21.7 µM | TGI (HT29 colon): > 89.7 µM | TGI (IGROV1 ovarian): 9.2 µM | TGI (K-562 leukemia): > 100 µM | TGI (KM12 colon): > 100 µM | TGI (LOX IMVI melanoma): > 41.5 µM | TGI (M14 melanoma): > 100 µM | TGI (MALME-3M melanoma): 26.3 µM | TGI (MCF7 breast): > 79 µM | TGI (MDA-MB-231 breast): > 23.8 µM | TGI (MDA-MB-435): > 100 µM | TGI (MDA-N): > 100 µM | TGI (MOLT-4 leukemia): > 100 µM | TGI (NCI-H226 lung): 12.2 µM | TGI (NCI-H23 lung): 17.8 µM | TGI (NCI-H460 lung): > 100 µM | TGI (NCI-H522 lung): 16.7 µM | TGI (NCI/ADR-RES ovarian): 27 µM | TGI (OVCAR-3 ovarian): 4.73 µM | TGI (OVCAR-4 ovarian): 3.91 µM | TGI (OVCAR-5 ovarian): > 56.4 µM | TGI (OVCAR-8 ovarian): 7.97 µM | TGI (PC-3 prostate): > 100 µM | TGI (RPMI-8226 leukemia): > 100 µM | TGI (SF-268 CNS): 43.7 µM | TGI (SF-295 CNS): 23 µM | TGI (SF-539 CNS): 5.62 µM | TGI (SK-MEL-2 melanoma): 24.4 µM | TGI (SK-MEL-28 melanoma): > 100 µM | TGI (SK-MEL-5 melanoma): > 100 µM | TGI (SK-OV-3 ovarian): 8.01 µM | TGI (SN12C renal): > 40.7 µM | TGI (SNB-19 CNS): 14 µM | TGI (SNB-75 CNS): 6.16 µM | TGI (SR leukemia): > 100 µM | TGI (SW-620 colon): 49.9 µM | TGI (T-47D breast): 7.06 µM | TGI (TK-10 renal): 6.43 µM | TGI (U251 CNS): 9.66 µM | TGI (UACC-257 melanoma): > 100 µM | TGI (UACC-62 melanoma): 9.15 µM | TGI (UO-31 renal): 12.2 µM
